Assay results published in publication PMC10291556 (Journal of Medicinal Chemistry, 2023).

Assays:
[1] = test system: MDA-MB-231; assay: MTT antiproliferative assay, 72 h; type: cell-based, human; conditions: MTT, 72 h incubation, mean ± SD; read-out: IC50 MDA-MB-231
Description: (§1) Cells were treated with the tested compounds in a final volume of 200 μL/well. […] Calbiochem, Darmstadt, Germany) was added, and the cells were incubated for an additional 2–4 h. The medium was removed, and the insoluble formazan product was dissolved in 100 μL/well DMSO. The absorbance was read at 570 nm (vs 620 nm) using an Absorbance Reader (SUNRISE TECAN SCHOELLER). The read values were converted to the percentage of control. […] All experiments were made in triplicate.

[2] = test system: HCT-116; assay: MTT antiproliferative assay, 72 h; type: cell-based, human; conditions: MTT, 72 h incubation, mean ± SD; read-out: IC50 HCT-116
Description: as §1

[3] = test system: MCF-7; assay: MTT antiproliferative assay, 72 h; type: cell-based, human; conditions: MTT, 72 h incubation, mean ± SD; read-out: IC50 MCF-7
Description: as §1

[4] = test system: A2780cisR; assay: MTT antiproliferative assay, 72 h; type: cell-based, human; conditions: MTT, 72 h incubation, mean ± SD; read-out: IC50 A2780cisR
Description: as §1

[5] = test system: A2780; assay: MTT antiproliferative assay, 72 h; type: cell-based, human; conditions: MTT, 72 h incubation, mean ± SD; read-out: IC50 A2780
Description: as §1

[6] = test system: HeLa; assay: MTT antiproliferative assay, 72 h; type: cell-based, human; conditions: for increase of antiproliferative activity relative to Pt(IV) complex 2: IC50, Table 1; for IC50: MTT, 72 h incubation, mean ± SD, read-out: IC50 HeLa
Description: as §1

[7] = test system: tubulin in HeLa cells; assay: Western blotting of tubulin; type: cell-based, human; conditions: 24 h, 0.25× or 0.5× IC50,72h, Western blot
Description: Figure 2 Western blotting analyses of tubulin in protein extract from HeLa cells treated with the investigated Pt complexes. (A) Representative membranes. […] Proteins from control, untreated cells were loaded to lane C. (B) Quantitative data evaluation; bars represent mean ± SD from two independent experiments.
HeLa cells were seeded in 60 mm dishes at a density of 3 × 10^5 cells/dish and cultured for 20 h. The cells were then treated with the tested compounds at concentrations indicated in the text. After 24 h of treatment, the cells were scraped, washed, and pelleted. […] After transferring to the polyvinylidene fluoride membrane, the proteins were detected using appropriate antibodies: anti-GAPDH antibody (mouse, Sigma-Aldrich), Anti-COX-2 (rabbit, Abcam), Anti-α-, β-, or γ-tubulin (all rabbit, Abcam), Anti-β-actin (mouse, Abcam), Goat Anti-Rabbit IgG(HRP) (Abcam; HRP = horseradish peroxidase), and Goat Anti-Mouse IgG(HRP) (ThermoFisher Scientific). SignalFire ECL Reagent (A + B) was used as a substrate for HRP, and the luminescence was recorded with Amersham Imager 680. The densities in the images were assessed with the Aida image analysis software.

[8] = Partition coefficient, shake-flask method; type: physicochemical; conditions: octanol/water
Description: The “shake flask” method was used to measure the partition coefficients (P) of platinum compounds. The compounds were dissolved in octanol-saturated water (OSW) containing 200 mM NaCl. […] After careful separation of the layers with a fine-tip pipet, the Pt content in individual phases was determined by flameless atomic absorption spectrometry. The partition coefficients were calculated as the concentration ratio of the compound in the octanol layer to that in the aqueous layer, log P = log([Pt]WSO/[Pt]OSW).

[9] = test system: COX-2 in HeLa cells; assay: Western blotting of COX-2; type: cell-based, human; conditions: 24 h, 1×, 3× IC50, Western blot
Description: (B) Quantitative evaluation of Western blotting data; the relative expression of COX-2 normalized to GAPDH. Data represents the mean ± SD of two experiments. The stars indicate the statistical significance of difference vs control determined with the Student t-test (*p < 0.05, **p < 0.01, ***p < 0.001).
HeLa cells were seeded in 60 mm dishes at a density of 3 × 10^5 cells/dish and cultured for 20 h. The cells were then treated with the tested compounds at concentrations indicated in the text. After 24 h of treatment, the cells were scraped, washed, and pelleted. […] 4–20% SDS-PAGE (sodium dodecyl sulfate-polyacrylamide gel electrophoresis) (Mini-PROTEAN TGX Precast Gel) was used to resolve the proteins. After transferring to the polyvinylidene fluoride membrane, the proteins were detected using appropriate antibodies: anti-GAPDH antibody (mouse, Sigma-Aldrich), Anti-COX-2 (rabbit, Abcam), Anti-α-, β-, or γ-tubulin (all rabbit, Abcam), Anti-β-actin (mouse, Abcam), Goat Anti-Rabbit IgG(HRP) (Abcam; HRP = horseradish peroxidase), and Goat Anti-Mouse IgG(HRP) (ThermoFisher Scientific). SignalFire ECL Reagent (A + B) was used as a substrate for HRP, and the luminescence was recorded with Amersham Imager 680. The densities in the images were assessed with the Aida image analysis software.

[10] = test system: HeLa cells; assay: Cellular accumulation of platinum (ICP-MS); type: cell-based, human; conditions: for cellular uptake 0.1 μM/24 h: 0.1 μM complex; for cellular uptake 1 μM/6 h: 1 μM complex; for cellular uptake 10 μM/6 h: 10 μM complex; for cellular uptake relative to Pt(IV) complex 2: Table 3
Description: Briefly, 3 × 10^6 cells were seeded in 100 mm culture dishes and grown overnight. The cells were exposed to the tested complexes at indicated concentrations for indicated periods. […] The pellets were digested using the microwave acid (HCl) digestion system (CEM Mars). The platinum quantity taken up by the cells was determined by inductively coupled plasma mass spectrometry (ICP–MS). All experiments were performed in triplicate.

SMILES | IC50 [1] [nM] | IC50 [2] [nM] | IC50 [3] [nM] | IC50 [4] [nM] | IC50 [5] [nM] | increase of antiproliferative activity relative to Pt(IV) complex 2 [6] [fold] | IC50 [6] [nM] | reduction of the amount of tubulin in cell extracts [7] | log P [8] | intracellular level of COX-2 protein [9] | cellular uptake 0.1 μM/24 h [10] [ng Pt/10^6 cells] | cellular uptake 1 μM/6 h [10] [ng Pt/10^6 cells] | cellular uptake 10 μM/6 h [10] [ng Pt/10^6 cells] | cellular uptake relative to Pt(IV) complex 2 [10]
Cc1c(C)c2c3c4c1=CC=C[N]4[Pt][N]3C=CC=2.NCCNC(=O)Cc1ccccc1Nc1c(Cl)cccc1Cl.NCCNC(=O)Cc1ccccc1Nc1c(Cl)cccc1Cl.N[C@H]1CCCC[C@@H]1N [complex 4, Pt^IV56MeSS(DCF)2] | 290 ± 40 | 180 ± 50 | 330 ± 50 | 80 ± 20 | 50 ± 10 | 9 | 310 ± 80 | higher potency of the two complexes to reduce the amount of tubulin | –1.4 ± 0.1 | able to reduce the intracellular level of COX-2 protein | 3.9 ± 0.3 | 11 ± 2 | 82 ± 7 | 1.7–1.8 fold
Cc1c(C)c2c3c4c1=CC=C[N]4[Pt]([Cl])[N]3C=CC=2.NCCNC(=O)Cc1ccccc1Nc1c(Cl)cccc1Cl.N[C@H]1CCCC[C@@H]1N [complex 3, Pt(IV)56MESSenDCFCl] | 400 ± 100 | 200 ± 30 | 400 ± 100 | 130 ± 20 | 120 ± 20 | 4.5 | 600 ± 100 | higher potency of the two complexes to reduce the amount of tubulin | –1.7 ± 0.1 | able to reduce the intracellular level of COX-2 protein | 3.6 ± 0.2 | 9.6 ± 0.8 | 61 ± 8 | 1.3–1.6 fold
